Activity calls are given as the source filed them. Unless noted, no cut-off for these calls is given here.

Experiment [1] deals with T1, Hexokinase HKDC1 (Homo sapiens, UniProt Q2TB90).
T1 sequence (Q2TB90 whole entry): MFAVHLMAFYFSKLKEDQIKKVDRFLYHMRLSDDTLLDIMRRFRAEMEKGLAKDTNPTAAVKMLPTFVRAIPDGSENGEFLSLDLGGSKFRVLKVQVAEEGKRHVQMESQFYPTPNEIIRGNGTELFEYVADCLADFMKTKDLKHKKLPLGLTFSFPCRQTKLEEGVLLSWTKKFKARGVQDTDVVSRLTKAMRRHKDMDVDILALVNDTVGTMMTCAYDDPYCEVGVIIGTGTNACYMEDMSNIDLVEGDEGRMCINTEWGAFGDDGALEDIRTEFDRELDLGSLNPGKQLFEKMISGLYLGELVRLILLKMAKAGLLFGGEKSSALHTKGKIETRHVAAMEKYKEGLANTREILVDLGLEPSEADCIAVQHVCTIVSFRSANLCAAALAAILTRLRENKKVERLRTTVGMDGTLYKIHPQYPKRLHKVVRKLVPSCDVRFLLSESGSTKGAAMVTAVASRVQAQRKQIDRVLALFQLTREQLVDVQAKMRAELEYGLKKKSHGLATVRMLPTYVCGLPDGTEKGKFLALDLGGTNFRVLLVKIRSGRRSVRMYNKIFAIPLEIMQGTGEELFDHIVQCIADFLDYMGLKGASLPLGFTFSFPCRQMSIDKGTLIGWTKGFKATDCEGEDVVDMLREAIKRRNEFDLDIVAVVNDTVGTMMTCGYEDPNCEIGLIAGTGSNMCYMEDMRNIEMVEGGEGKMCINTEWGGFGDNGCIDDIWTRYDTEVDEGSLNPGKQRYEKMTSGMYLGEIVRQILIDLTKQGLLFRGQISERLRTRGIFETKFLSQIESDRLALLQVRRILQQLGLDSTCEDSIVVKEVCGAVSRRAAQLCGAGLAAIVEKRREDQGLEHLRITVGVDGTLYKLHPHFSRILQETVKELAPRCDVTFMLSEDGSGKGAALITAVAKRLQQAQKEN
The experiment can be described thus: inhibition of HKDC1 glucose phosphorylation – biochemical, W721R variant, dose response (AID 504729). It is filed as functional.

The target in experiment [2] is T2, Replicative DNA helicase DnaB (Mycobacterium tuberculosis, UniProt P9WMR3).
T2 sequence (P9WMR3 whole entry): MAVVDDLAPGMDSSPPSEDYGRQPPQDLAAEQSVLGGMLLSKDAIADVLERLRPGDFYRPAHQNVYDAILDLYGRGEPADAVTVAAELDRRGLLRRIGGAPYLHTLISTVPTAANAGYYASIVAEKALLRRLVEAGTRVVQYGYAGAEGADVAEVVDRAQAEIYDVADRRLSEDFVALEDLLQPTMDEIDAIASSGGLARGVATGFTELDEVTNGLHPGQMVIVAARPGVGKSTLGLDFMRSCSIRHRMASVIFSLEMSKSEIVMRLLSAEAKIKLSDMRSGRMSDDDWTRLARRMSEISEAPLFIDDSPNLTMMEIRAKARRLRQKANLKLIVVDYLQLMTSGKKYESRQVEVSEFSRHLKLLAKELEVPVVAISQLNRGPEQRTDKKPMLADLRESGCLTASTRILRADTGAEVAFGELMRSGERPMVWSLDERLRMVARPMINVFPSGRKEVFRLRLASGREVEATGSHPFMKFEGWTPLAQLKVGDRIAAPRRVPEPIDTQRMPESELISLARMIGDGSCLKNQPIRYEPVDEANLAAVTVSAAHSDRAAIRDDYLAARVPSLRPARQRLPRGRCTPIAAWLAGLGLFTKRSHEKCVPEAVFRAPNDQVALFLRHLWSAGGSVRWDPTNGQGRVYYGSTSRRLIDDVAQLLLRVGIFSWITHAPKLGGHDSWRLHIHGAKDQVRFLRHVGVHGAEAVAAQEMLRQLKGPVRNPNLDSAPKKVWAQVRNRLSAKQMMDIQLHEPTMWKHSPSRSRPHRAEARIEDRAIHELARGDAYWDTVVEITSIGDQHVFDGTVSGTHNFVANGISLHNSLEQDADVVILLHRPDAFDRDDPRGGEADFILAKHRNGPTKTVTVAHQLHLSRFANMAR
The experiment is described as follows: DnaB intein splicing inhibitors, dose response, biochemical, cell-free fluorescence (AID 449749). It is filed as functional.

A short description of experiment [3]: blockers of CAL PDZ ligand groove binding – biochemical, fluorescence polarization, untagged CAL PDZ, cherry-pick, dose response (AID 602267). The class given is functional.
For the next experiment, the target named is T3, Caspase-6 (Homo sapiens, UniProt P55212).
T3 sequence (P55212 whole entry): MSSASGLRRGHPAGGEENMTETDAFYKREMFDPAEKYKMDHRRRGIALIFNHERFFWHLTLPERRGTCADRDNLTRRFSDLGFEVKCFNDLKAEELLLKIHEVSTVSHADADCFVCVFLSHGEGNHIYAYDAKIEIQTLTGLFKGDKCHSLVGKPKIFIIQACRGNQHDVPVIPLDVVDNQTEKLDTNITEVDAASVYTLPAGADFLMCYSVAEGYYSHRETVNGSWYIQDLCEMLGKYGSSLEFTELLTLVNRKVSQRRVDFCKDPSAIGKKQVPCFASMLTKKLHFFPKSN
The experiment can be described thus: inhibition of CASP6 peptide cleavage – biochemical, VEID-R110 fluorescence, cherry-pick, dose response (AID 720632).

Experiment [4] addresses T1, Hexokinase HKDC1. The experiment is described as follows: SAR analysis of small molecule inhibitors of hexokinase domain containing I (HKDC1) - Set 3. [Related pubchem assays (depositor defined):AID493160, AID493190]. It is filed as functional.
Experiment [5] concerns the target T1, Hexokinase HKDC1. The experiment is described as follows: analog inhibition of human HKDC1 activity – biochemical, set 2, SAR follow-up (AID 588355). It is filed as functional.
The target in experiment [6] is Cystic fibrosis transmembrane conductance regulator/Golgi-associated PDZ and coiled-coil motif-containing protein (Homo sapiens, UniProt P13569+Q9HD26). The experiment is described as follows: potency against CAL PDZ-peptide interaction – biochemical, fluorescence polarization, Cerulean-tagged CAL PDZ, cherry-picks, dose response (AID 504773).
Experiment [7] deals with T4, Tyrosyl-DNA phosphodiesterase 2 (Homo sapiens, UniProt O95551).
T4 sequence (O95551 whole entry): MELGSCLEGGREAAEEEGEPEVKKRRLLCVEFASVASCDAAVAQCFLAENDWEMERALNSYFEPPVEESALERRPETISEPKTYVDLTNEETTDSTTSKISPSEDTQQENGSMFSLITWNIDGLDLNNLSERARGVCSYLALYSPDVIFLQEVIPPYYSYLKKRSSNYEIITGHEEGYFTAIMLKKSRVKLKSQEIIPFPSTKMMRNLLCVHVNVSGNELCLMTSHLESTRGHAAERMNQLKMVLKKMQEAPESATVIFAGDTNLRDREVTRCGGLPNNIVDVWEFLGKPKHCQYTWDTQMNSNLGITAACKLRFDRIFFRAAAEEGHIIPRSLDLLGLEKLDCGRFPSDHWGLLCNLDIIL
The experiment can be described thus: potency against TDP2 phosphodiesterase activity – biochemical, epi absorbance, IC50, dose response (AID 743297).

The target of the next experiment is T5, Protein RecA (Mycobacterium tuberculosis, UniProt P9WHJ3).
T5 sequence (P9WHJ3 whole entry): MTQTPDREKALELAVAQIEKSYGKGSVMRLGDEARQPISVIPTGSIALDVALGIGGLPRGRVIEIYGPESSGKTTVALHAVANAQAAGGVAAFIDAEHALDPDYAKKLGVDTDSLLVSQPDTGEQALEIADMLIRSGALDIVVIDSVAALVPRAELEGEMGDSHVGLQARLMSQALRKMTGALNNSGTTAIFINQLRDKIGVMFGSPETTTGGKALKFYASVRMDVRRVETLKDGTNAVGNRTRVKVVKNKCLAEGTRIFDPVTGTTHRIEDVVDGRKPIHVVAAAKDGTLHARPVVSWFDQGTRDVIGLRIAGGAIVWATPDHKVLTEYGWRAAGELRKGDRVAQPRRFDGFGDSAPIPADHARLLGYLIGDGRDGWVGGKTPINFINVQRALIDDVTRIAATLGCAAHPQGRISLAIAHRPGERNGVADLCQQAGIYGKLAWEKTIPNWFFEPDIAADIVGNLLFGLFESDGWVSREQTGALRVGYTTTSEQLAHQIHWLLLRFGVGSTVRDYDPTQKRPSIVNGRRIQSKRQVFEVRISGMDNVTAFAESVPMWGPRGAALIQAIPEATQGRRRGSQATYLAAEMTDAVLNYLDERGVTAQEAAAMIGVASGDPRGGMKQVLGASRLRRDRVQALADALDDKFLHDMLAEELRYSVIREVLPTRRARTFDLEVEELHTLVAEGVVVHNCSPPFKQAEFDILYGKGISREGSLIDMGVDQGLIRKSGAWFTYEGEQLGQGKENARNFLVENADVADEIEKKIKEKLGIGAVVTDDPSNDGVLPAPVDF
The experiment is described as follows: Fluorescence Cell-Free Homogeneous Dose Retest to Identify Inhibitors of RecA-Intein Splicing Activity. [Related pubchem assays (depositor defined):AID2097, AID2223, AID489010, AID492950]. The class given is functional.

Chain of Cystic fibrosis transmembrane conductance regulator/Golgi-associated PDZ and coiled-coil motif-containing protein (P13569 whole entry, other chains not shown): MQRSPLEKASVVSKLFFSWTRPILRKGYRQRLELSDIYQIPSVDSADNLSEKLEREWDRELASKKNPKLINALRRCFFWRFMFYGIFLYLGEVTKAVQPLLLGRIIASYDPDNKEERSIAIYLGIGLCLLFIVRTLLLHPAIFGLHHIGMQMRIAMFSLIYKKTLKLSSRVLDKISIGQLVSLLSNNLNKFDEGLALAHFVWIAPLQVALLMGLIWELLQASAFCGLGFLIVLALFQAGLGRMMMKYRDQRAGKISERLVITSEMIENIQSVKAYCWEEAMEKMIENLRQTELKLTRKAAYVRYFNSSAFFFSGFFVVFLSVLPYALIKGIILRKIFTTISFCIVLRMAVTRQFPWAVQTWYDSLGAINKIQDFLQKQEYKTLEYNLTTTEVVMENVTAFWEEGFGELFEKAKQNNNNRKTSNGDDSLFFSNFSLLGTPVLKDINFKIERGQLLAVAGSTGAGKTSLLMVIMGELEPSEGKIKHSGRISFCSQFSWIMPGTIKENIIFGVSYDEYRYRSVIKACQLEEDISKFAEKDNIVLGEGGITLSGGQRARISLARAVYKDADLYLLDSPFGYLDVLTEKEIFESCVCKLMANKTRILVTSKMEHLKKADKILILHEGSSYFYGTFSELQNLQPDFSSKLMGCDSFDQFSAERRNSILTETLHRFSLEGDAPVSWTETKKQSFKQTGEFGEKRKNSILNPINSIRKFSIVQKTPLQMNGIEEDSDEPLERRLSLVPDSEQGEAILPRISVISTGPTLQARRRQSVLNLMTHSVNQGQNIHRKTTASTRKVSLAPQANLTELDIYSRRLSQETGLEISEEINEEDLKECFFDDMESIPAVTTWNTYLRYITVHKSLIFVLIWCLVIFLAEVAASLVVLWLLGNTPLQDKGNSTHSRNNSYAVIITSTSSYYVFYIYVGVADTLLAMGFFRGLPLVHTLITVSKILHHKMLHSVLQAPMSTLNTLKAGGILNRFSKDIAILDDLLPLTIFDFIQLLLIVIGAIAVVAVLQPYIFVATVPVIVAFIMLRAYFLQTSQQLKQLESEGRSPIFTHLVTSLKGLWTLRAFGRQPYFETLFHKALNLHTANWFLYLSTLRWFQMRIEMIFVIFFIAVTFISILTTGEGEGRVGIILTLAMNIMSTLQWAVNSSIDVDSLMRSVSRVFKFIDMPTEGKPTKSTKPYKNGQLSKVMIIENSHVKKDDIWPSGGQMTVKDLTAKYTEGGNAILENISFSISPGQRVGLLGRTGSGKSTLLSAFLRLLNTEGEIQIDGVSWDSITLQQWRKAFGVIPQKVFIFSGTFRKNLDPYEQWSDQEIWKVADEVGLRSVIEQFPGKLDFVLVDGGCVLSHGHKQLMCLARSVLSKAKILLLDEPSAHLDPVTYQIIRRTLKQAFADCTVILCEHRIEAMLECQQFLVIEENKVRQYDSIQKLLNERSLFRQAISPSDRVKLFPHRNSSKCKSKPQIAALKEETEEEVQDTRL

A word on the IC50: it is the point on the concentration scale where inhibition reaches its midpoint. A word on the AC50: it is the concentration at which the activity in the assay is half-maximal. As usually defined, the EC50 is the concentration needed to bring the measured effect to its halfway point. With `CC(=O)NC1C(=O)N(CCN2CCOCC2)c2ccc(Br)cc21` (centres undefined), the half-inhibitory concentration (IC50) at Hexokinase HKDC1 [1] is 5.24 µM (active); on Hexokinase HKDC1 [4], 6.88 µM (active); on Hexokinase HKDC1 [5] it was 8.67 µM (active); in experiment [7], 16.3 µM (inactive). Besides, the AC50 is 14.3 µM (active) in [2], 82.6 µM (active) in [3], 12.6 µM (active) at Caspase-6 and 24.8 µM (active) in [6]. Besides, the EC50 at Protein RecA is 11 µM (active).

The values above are taken from ChEMBL document CHEMBL1201862, “PubChem BioAssay data set” (2004).
